Laboratory results: paper PMC10645073, “Interaction of gallium, indium and vanadyl diacetylcurcumin complexes with lysozyme: mechanistic aspects and evaluation of antiamyloidogenic activity” (Royal Society Open Science, 2023)
pIC50: −log10 of the molar value. Each block holds one compound with its values, some of them ahead of it.

How the values were obtained:
[1] = target: T1, hen egg white lysozyme (HEWL) (Gallus gallus, UniProt P00698); assay: Intrinsic fluorescence quenching of HEWL (Stern-Volmer, double logarithmic and van't Hoff analysis); type: binding; settings: for KSV (Stern-Volmer quenching constant): HEWL 3 µM; for kq (bimolecular quenching rate constant): kq = KSV/τ0, τ0 10^−8 s
T1 construct: whose 129 amino acid residues are linked together by four disulfide bridges to form a single polypeptide chain; purchased Sigma-Aldrich L6876; host or cells: hen egg white (natural source, per the protein's name)
Protocol: The intrinsic fluorescence spectra of HEWL (3 µM) in the absence and presence of Ga(DAC)3, In(DAC)3 and VO(DAC)2 complexes were collected using a Varian Cary Eclipse fluorescence spectrophotometer equipped with a 10 mm quartz cell by adjusting the excitation wavelength to 295 nm and setting the width of both excitation and emission slits at 5 nm. After adding the mentioned concentrations of the metal complexes of diacetylcurcumin to HEWL solution, the samples were scanned in the wavelength range of 300–500 nm. Corrections were made for the inner filter effect on the fluorescence spectra according to the following equation: Fcor=Fobs×10^(Aex+Aem)/2, where Fcor is corrected fluorescence intensity, Fobs is the observed (uncorrected) fluorescence intensity, Aex is the absorbance at the fluorescence excitation wavelength and Aem is the absorbance at the selected fluorescence emission wavelength.
The fluorescence quenching process of HEWL in the presence of three metal complexes of diacetylcurcumin can be quantified according to the well-known Stern-Volmer equation:3.1 F0/F=1+KSV[Q]=1+kqτ0[Q],
where F0 and F represent the intrinsic emission intensities of HEWL fluorophores, respectively, in the absence and presence of the metal complexes of diacetylcurcumin, and [Q] is the molar concentration of quencher. KSV, kq and τ0 denote the Stern-Volmer quenching constant, bimolecular quenching rate constant, and the average lifetime of fluorophore without quencher, respectively. The value of KSV, as a parameter of the sensitivity of the fluorophore to a quencher, can be estimated from the slope of the linear plot of F0/F as a function of [Q] (figure 2d,e,f; electronic supplementary material, figure S1). To obtain more accurate quantification of fluorescence data, the total area of the emission fluorescence peaks (S0 and S) was applied instead of the emission fluorescence intensities (F0 and F). The fluorescence quenching phenomenon can be generally divided into two distinct classes: static quenching and dynamic quenching. Owing to the reciprocal and direct correlations between the KSV parameter and temperature, respectively, for static and dynamic quenching, the observed trend in the KSV value versus temperature can be used to distinguish these mechanisms from each other. In dynamic quenching, an increase in temperature leads to faster diffusion of molecules by which weakly bound nonfluorescent complexes are further dissociated, and the value of KSV increases. From the data recorded in table 1, it can be seen that the KSV value of HEWL/Ga(DAC)3 and HEWL/In(DAC)3 systems decreases as temperature increases, while it increases with increasing temperature for the HEWL/VO(DAC)2 system. […] Considering a lifetime value of 10^−8 s for the native fluorophores, [27] the equation kq = KSV/τ0 gives the kq values greater than the diffusion-limited quenching value of 2.0 × 10 ^+ 10 M^−1 s^−1 for all systems.
Assuming that all the binding sites of HEWL are identical and independent and an equilibrium interaction is established between HEWL and each of the metal complexes of diacetylcurcumin, the fluorescence quenching process can be further analysed by the following double logarithmic equation:3.2 log(F0−F/F)=logKb+nlog[Q], where Kb and n represent the binding constant and number of binding sites on each HEWL molecule, respectively. Plotting log[(F0 − F)/F] versus log[Q] produces a straight line whose slope and intercept can be used respectively to estimate the values of n and Kb (electronic supplementary material, figures S2A, S2B, S2C and S3). […] In other words, the resulting bioconjugates are the product of the interaction between HEWL and the metal complexes of diacetylcurcumin with a 1 : 1 stoichiometry. […]

[2] = target: T1, hen egg white lysozyme (HEWL); assay: Synchronous fluorescence spectroscopy of HEWL; type: binding; settings: Δλ = 60 nm
Protocol: To obtain synchronous fluorescence spectra, simultaneous scanning of excitation and emission monochromators was performed in such a way as to maintain a constant wavelength interval between them. The changes in the molecular microenvironment of tyrosine and tryptophan residues of HEWL were monitored by fixing the wavelength interval (Δλ = λem − λex) individually at 15 and 60 nm, respectively. The concentrations of HEWL and three metal complexes of diacetylcurcumin were the same as those mentioned for the intrinsic fluorescence spectroscopy.
To investigate the effect of the metal complexes of diacetylcurcumin on the conformation of tyrosine and tryptophan residues of HEWL, synchronous fluorescence spectra of HEWL were recorded alone and in the presence of the metal complexes (electronic supplementary material, figure S5). By fixing the Δλ value, i.e. the difference between excitation and emission wavelengths, at 15 and 60 nm, synchronous fluorescence spectroscopy provides useful information on the microenvironmental changes of tyrosine and tryptophan residues of proteins, respectively. As shown in the electronic supplementary material, figure S5, all three metal complexes of diacetylcurcumin strongly quench the emission fluorescence of HEWL at both 15 and 60 nm. […] At Δλ = 15 nm, no shift in the emission maximum of HEWL is observed, whereas at Δλ = 60 nm, a 2 nm blue shift is observed in the emission spectrum of tryptophan residues of the protein after the interaction with the metal complexes of diacetylcurcumin except for the VO(DAC)2 complex. […] Overall, it can be concluded that the formation of HEWL/metal complex bioconjugates is associated with the binding of three metal complexes of diacetylcurcumin to both tyrosine and tryptophan residues in which the conformational changes can occur only around the tryptophan residues of the protein. It should be noted that the reduction in the polarity of the microregions surrounding tryptophan residues of the protein has already been observed by the intrinsic emission fluorescence titrations (see §3.1.1.).

mouse lymphoma cells = system: mouse lymphoma cells; set-up: method as in PMID 16171869; settings: read-out: IC50 cytotoxicity; cited from earlier work
Aβ42 = settings: copper-induced Aβ42 cross-linking; cited from earlier work

- n (number of binding sites on each HEWL molecule) ([1]; T 293 K): (0.92 ± 0.02)
- ΔG^0 (Gibbs free energy change of binding) ([1]; T 293 K): -5.081 ± 0.139 kcal/mol
- KSV (Stern-Volmer quenching constant) ([1]; T 293 K): (1.46 ± 0.02) × 10^+4 M^−1
- kq (bimolecular quenching rate constant) ([1]; T 293 K): (1.46 ± 0.02) × 10^+12 M^−1 s^−1
- n (number of binding sites on each HEWL molecule) ([1]; T 303 K): (0.80 ± 0.02)
- ΔG^0 (Gibbs free energy change of binding) ([1]; T 303 K): -5.057 ± 0.139 kcal/mol
- KSV (Stern-Volmer quenching constant) ([1]; T 303 K): (1.30 ± 0.01) × 10^+4 M^−1
- kq (bimolecular quenching rate constant) ([1]; T 303 K): (1.30 ± 0.01) × 10^+12 M^−1 s^−1
- n (number of binding sites on each HEWL molecule) ([1]; T 308 K): (0.89 ± 0.02)
- ΔG^0 (Gibbs free energy change of binding) ([1]; T 308 K): -5.045 ± 0.139 kcal/mol
- KSV (Stern-Volmer quenching constant) ([1]; T 308 K): (1.25 ± 0.01) × 10^+4 M^−1
- kq (bimolecular quenching rate constant) ([1]; T 308 K): (1.25 ± 0.01) × 10^+12 M^−1 s^−1
- blue shift of HEWL emission maximum on quenching ([1]; excitation 295 nm, emission maximum 345 nm): 4 nm
- fluorescence quenching mechanism ([1]; from KSV versus temperature and kq): static mechanism
- binding constant, order of magnitude ([1]; summary of table 1): 10^+3 M^−1
- ΔH^0 (enthalpy change of binding) ([1]; van't Hoff plot over 293–308 K): -5.817 ± 0.0406 kcal/mol
- ΔS^0 (entropy change of binding) ([1]; van't Hoff plot over 293–308 K): −10.50 ± 0.55 J mol^−1 K^−1
- microenvironment of tryptophan residues of HEWL [2]: more hydrophobic
Compound: COc1cc(C=CC(=O)C=C([O-])C=Cc2ccc(OC(C)=O)c(OC)c2)ccc1OC(C)=O.COc1cc(C=CC(=O)C=C([O-])C=Cc2ccc(OC(C)=O)c(OC)c2)ccc1OC(C)=O.COc1cc(C=CC(=O)C=C([O-])C=Cc2ccc(OC(C)=O)c(OC)c2)ccc1OC(C)=O.[Ga+3] [Ga(DAC)3, gallium diacetylcurcumin]
- main forces / modes of interaction stabilizing the bioconjugate ([1]; from signs of ΔH^0 and ΔS^0): van der Waals interactions and hydrogen bonds
- pIC50 (mouse lymphoma cells): 4.52 to 4.60

Compound: COc1cc(C=CC(=O)CC(=O)C=Cc2ccc(O)c(OC)c2)ccc1O [curcumin, 1,7-bis(4-hydroxy-3-methoxyphenyl)-1,6-heptadiene-3,5-dione]
- pIC50 (mouse lymphoma cells): 4.52 to 4.60

Compound: CRANAD-17
- effect on Aβ amyloid formation (Aβ42): considerably reduces Aβ amyloid formation
